Patent publication US20220395500A1, “SMALL MOLECULE ACTIVATORS OF INTERFERON REGULATORY FACTOR 3 AND METHODS OF USE THEREOF” (Neuralexo, Inc., priority 2020, published 2022)
Where two headings read alike, the source gives them in different places.

Assays:
[1] = tested on: IRF-Lucia luciferase reporter (ISRE) in J774-Dual cells; experiment: J774-Dual IRF-Lucia luciferase reporter assay (ISRE activation); type: cell-based, mouse; conditions: for EC50: Mus musculus, read-out: J774 IRF EC50
Method: First, optimal assay conditions and assay quality in 384-well format were determined. As mentioned, the mouse macrophage J774 cell line (J774-Dual, InvivoGen) stably transfected with the same inducible reporters described above (e.g., IRF-Lucia luciferase and NF-κB-SEAP) was used. The responsiveness of the J774-Dual cell line was investigated in an array of assay conditions to obtain sensitive and reproducible results for the activation of the IRF and NF-κB reporters. An optimal plating density and conditions for these cells was established for these cells in a 384-well format. Assay work-flow is similar to that discussed above for the THP1-Dual assay without a need for cell differentiation. Thus, cells are seeded directly in growth medium and incubated at 37° C. in a 5% C02 incubator for 24 hours prior to the programmed treatments being added as described herein.
The primary high throughput screen used the HTS platform of human THP1 monocyte cells containing the IRF-Lucia luciferase and NFκB-SEAP (secreted embryonic alkaline phosphatase) dual reporter (THP1-Dual, Invivogen), enabling the simultaneous study of the IRF and NFκB signaling pathways respectively. As discussed, the Lucia luciferase reporter gene is under the control of an ISG54 (interferon-stimulated gene) minimal promoter in conjunction with five interferon-stimulated response elements (ISRE). The SEAP gene is driven by an IFNβ minimal promoter fused to five copies of the NFκB consensus transcriptional response element and three copies of the c-Rel binding site. Both IRF-Lucia luciferase and NFκB-SEAP reporter proteins are secreted and readily measurable in the cell culture supernatant when using QUANTI-Luc™ and QUANTI-Blue™ detection reagents, respectively. Identified “hits” were confirmed in a secondary screen with an 8-point dose response curve. Hits were further screened for activity in the mouse using the mouse J774 macrophage-like cell line containing the identical reporter constructs (J774-Dual, Invivogen).
The OTRADI Small Molecule Library of approximately 246,000 diverse compounds (see below for description) was screened using the THP1-Dual based HTS platform described above. All transfer steps in the screen are fully automated, thus reducing variability. Primary screening included a single data point or dose for each molecule. After data normalization was applied for each assay run, “hit” selection was performed on the plates that pass the quality control (QC) criterion. Hits were defined as samples having values above the activity cutoff determined based on noise level of the assay to reduce false positive rates. In the pilot study discussed above this activity value was >3σ above the ISRE mean with the added criteria of NFκB activation being lower than […] from the mean to identify IRF selective compounds. The ratio of ISRE:NFκB activity was also calculated as a selectivity index for prioritizing hit selection. Primary hits underwent secondary screening to determine the 50% effective concentration (EC50) and 50% cytotoxic concentration (CC50) of these agents using an 8-point dose-response curve in the human THP1-Dual cells. Cytotoxicity was measured in the plate using Cell Titer Glo (Promega). Identified candidate compounds were further screened (orthogonal screen) for cross species activity in the validated mouse J774-Dual assay using an 8-point dose-response format to determine EC50 and CC50 values as well as ISRE:NFκB ratios. A general process flow for the experimental design laid out above is depicted at FIG. 12.

J774-Dual cytotoxicity = type: cell-based, mouse; conditions: mouse, J774-Dual cells, read-out: J774 cytotox CC50
Method in brief: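 CC50 derived from 8-point concentration series in mouse J774-Dual reporter cells, with viability read by CellTiter-Glo in the same plate. Run in parallel with EC50 and ISRE:NFκB ratio determination for cross-species confirmation.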

[2] = tested on: IRF-Lucia luciferase reporter (ISRE) in THP1-Dual cells; experiment: THP1-Dual IRF-Lucia luciferase reporter assay (ISRE activation); type: cell-based, human; conditions: Homo sapiens, THP1-Dual, read-out: THP1 IRF EC50
Method: (§1) THP1 Dual (InvivoGen) cell suspensions were cultured in RPMI 1640 (Hyclone, Logan, Utah) supplemented with 10% fetal bovine serum (Hyclone), 100 U/mL Normocin (Invivogen), and 50 U/mL PenStrep (Gibco, Dublin, Ireland) between a density of 7·10^5-2·10^6 cells/mL. Every other passage, media was supplemented with 5 U/mL Blasticidin and 100 U/mL Zeocin to maintain the expression constructs. White, flat-bottom 384-well plates (Greiner, Kremsmunster, Austria, 781080) were seeded with 2.5·10^4 cells/well in a total of 50 μL media containing 5 ng/mL phorbolmyristic acid (PMA) using a Matrix WellMate (Thermo Scientific) dispenser. After 48 hours of incubation at 37° C., media was removed using a BioTek ELx405 CW plate washer set to aspirate and wash each well three times with 65 μL 1×PBS. Plates were reloaded with 50 μL media without PMA and treatments added. Lipopolysaccharide in dimethylsulfoxide (DMSO) was transferred to control wells using a HP D300 microdispenser to a final concentration of 313 ng/mL. Compounds from chemical library plates were copied using a Sciclone (Caliper LifeSciences) mounted with a 384-pin transfer tool to obtain a final concentration of 10 μM. After incubation with treatments for 24 hours, 10 μL of supernatant media from each well was transferred into a white, flat-bottom 384-well plate for luminescence readout and a black-walled, clear flat-bottom 384-well plate for absorbance readout.
(§2) Specifically, to enable screening of novel chemical entities (NCEs) in a larger screening effort, a robust high-throughput cell-based assay system for primary hit identification of ISRE activators based on the above-mentioned target validation was desired. Human ISRE activity was verified using a THP-1 monocyte line containing the NF-κB-SEAP and IRF-Lucia luciferase dual reporter (THP1-Dual; Invivogen) that features two reporter genes, SEAP (secreted embryonic alkaline phosphatase) and Lucia luciferase, thereby enabling the simultaneous study of the NF-κB and IRF signalling pathways. The Lucia luciferase reporter is under the control of an ISG54 (interferon-stimulated gene) minimal promoter in conjunction with five IFN-stimulated response elements. The SEAP gene is driven by an IFN-β minimal promoter fused to five copies of the NF-κB consensus transcriptional response element and three copies of the c-Rel binding site. Both reporter proteins are readily measurable in the cell culture supernatant when using QUANTI-LUC™ and QUANTI-Blue SEAP detection reagents.
The responsiveness of the human THP-1 Dual cell line was evaluated in an array of assay conditions to obtain sensitive and reproducible results for the activation of IRF and NF-κB reporters. […] All transfer steps are fully automated using high throughput robotic equipment. Briefly, cells are seeded in differentiation medium using a Matrix WellMate fitted with the WellMate Stacker (Thermo Scientific) and incubated at 37° C. with 5% CO2 for 48 h. Following differentiation, cells are washed using a BioTek ELx405 Select CW plate washer and growth medium added with the Matrix WellMate. Programmed control treatments are added to wells using a D300 digital dispenser fitted with T8+ dispense heads (Hewlett Packard) designed to dispense nanoliter quantities of material. Compounds from library plates are added using a pin tool fitted to a Sciclone ALH 3000 Workstation (Caliper Life Sciences) programmed with Maestro v4.4. After treatment, plates are returned to incubators for 24 hours. To measure reporter expression, supernatant is collected using the Sciclone and dispensed into 2 plates: 1) a white 384-well assay plate for Lucia luminescence measurements and 2) a clear-bottom black 384-well assay plate for SEAP absorbance measurements.

[3] = THP1-Dual cytotoxicity (Cell Titer Glo, ATP); type: cell-based, human; conditions: human, THP1-Dual cells, read-out: Thp1 cytotox CC50
Method in brief: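 CC50, the concentration killing half the cells, was derived from ATP-dependent CellTiter-Glo luminescence. Cells were THP1-Dual (human) and compound was tested as an 8-point dose-response series, with viability read in the same plate.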

[4] = tested on: NF-κB-SEAP reporter in THP1-Dual cells; experiment: THP1-Dual NF-κB-SEAP reporter counterscreen; type: cell-based, human; conditions: Homo sapiens, THP1-Dual, read-out: THP1 NFkB EC50
Method: as §1, §2
Using the experimental design and data analysis outlined above, optimized assay conditions were obtained. The responsiveness of the human THP-1 Dual cell line was evaluated in an array of assay conditions to obtain sensitive and reproducible results for the activation of IRF and NF-κB reporters. An optimal plating density and differentiation protocol for these cells was established in a 384-well format. All transfer steps are fully automated using high throughput robotic equipment. Briefly, cells are seeded in differentiation medium using a Matrix WellMate fitted with the WellMate Stacker (Thermo Scientific) and incubated at 37° C. with 5% CO2 for 48 h. Following differentiation, cells are washed using a BioTek ELx405 Select CW plate washer and growth medium added with the Matrix WellMate. Programmed control treatments are added to wells using a D300 digital dispenser fitted with T8+ dispense heads (Hewlett Packard) designed to dispense nanoliter quantities of material. Compounds from library plates are added using a pin tool fitted to a Sciclone ALH 3000 Workstation (Caliper Life Sciences) programmed with Maestro v4.4. After treatment, plates are returned to incubators for 24 hours. To measure reporter expression, supernatant is collected using the Sciclone and dispensed into 2 plates: 1) a white 384-well assay plate for Lucia luminescence measurements and 2) a clear-bottom black 384-well assay plate for SEAP absorbance measurements. […]

[5] = J774, Mouse Reporter Cell Line, 8-point dose response
[6] = Human Reporter Cell Line, 8-point dose response
[7] = Mouse Reporter Cell Line J774, at peak
[8] = J774, Mouse Reporter Cell Line J774

EC50 [1, 8] | EC50 ([2]; Human Reporter Cell Line THP1) | Compound | CC50 (J774-Dual cytotoxicity; Mouse Reporter Cell Line) | CC50 ([3]; Human Reporter Cell Line) | J774 IRF % activation at peak [1, 7] | CC50 (J774-Dual cytotoxicity; Mouse Reporter Cell Line J774) | CC50 ([3]; Human Reporter Cell Line THP1) | also measured
65 µM | 3.26 µM | COc1ccc(NC(=O)c2cc(NC(=O)c3cccs3)ccc2N2CCOCC2)cc1Cl [NB-22] |  |  | 24.91% | > 25 µM | > 25 µM | 
~7.27 µM | 11.9 µM | Cc1cc(C)c2c(N)c(C(=O)Nc3ccc4ccccc4c3)sc2n1 [ND-6] |  |  | 18.79% | > 25 µM | 49.8 µM | 
4.5 µM | 2.63 µM | COc1ccc(C(=O)Nc2cc(-c3nc4cc(Cl)ccc4o3)ccc2C)cc1[N+](=O)[O-] [ND-40] |  |  | 119.6% | > 25 µM | 16.1 µM | 
10 µM | ~3.05 µM | CCOc1ccc(C(=O)Nc2cc(-c3nc4ncccc4o3)ccc2C)cc1[N+](=O)[O-] [ND-48] |  |  | 4.4% | > 25 µM | 7.26 µM | 

Second part, the molecule before the results:

Compound | EC50 [1, 8] | EC50 ([2]; Human Reporter Cell Line THP1) | CC50 (J774-Dual cytotoxicity; Mouse Reporter Cell Line) | CC50 ([3]; Human Reporter Cell Line) | J774 IRF % activation at peak [1, 7] | CC50 (J774-Dual cytotoxicity; Mouse Reporter Cell Line J774) | CC50 ([3]; Human Reporter Cell Line THP1) | also measured
Cc1cccc(C(=O)Nc2ccc(N3CCN(C(=O)c4cccs4)CC3)cc2)c1C [NA-6] |  |  | > 25 µM | > 25 µM |  |  |  | J774 IRF % activation at peak ([1]; Mouse Reporter Cell Line): 22.78%; EC50 [1, 5]: 13.1 µM; EC50 [2, 6]: 7.47 µM
O=C(Nc1ccc(N2CCN(C(=O)c3cccs3)CC2)cc1)c1ccc2ccccc2c1 [NA-7] |  |  | > 25 µM | > 25 µM |  |  |  | J774 IRF % activation at peak ([1]; Mouse Reporter Cell Line): 5.638%; EC50 [1, 5]: 4.36 µM; EC50 [2, 6]: 3.91 µM
CC(Oc1ccc(C(=O)Nc2ccc(N3CCN(C(=O)c4cccs4)CC3)cc2)cc1)c1ccccc1 (centres unmarked) [NA-22] |  |  | > 25 µM | > 25 µM |  |  |  | EC50 [4, 6]: ~2.62 µM
O=C(Nc1ccc(N2CCN(C(=O)c3cccs3)CC2)cc1)c1ccc2c(c1)OCCO2 [NA-28] |  |  | > 25 µM | > 25 µM |  |  |  | EC50 [4, 6]: 3.02 µM
COc1c(C)cc(Br)cc1C(=O)Nc1ccc(N2CCN(C(=O)c3cccs3)CC2)cc1 [NA-31] |  |  | > 25 µM | > 25 µM |  |  |  | EC50 [4, 6]: ~3.24 µM
COC(=O)COc1cccc(NC(=O)c2cccc(NC(=O)c3cccs3)c2)c1 [NC-4] |  |  | > 25 µM | > 25 µM |  |  |  | J774 IRF % activation at peak ([1]; Mouse Reporter Cell Line): 6.428%; EC50 [1, 5]: ~5.88 µM; EC50 [2, 6]: 9.88 µM
Cc1ccc(-c2nc3cc(Cl)ccc3o2)cc1NC(=O)c1cc([N+](=O)[O-])c(C)c([N+](=O)[O-])c1 [ND-61] |  |  |  |  |  | > 25 µM | > 25 µM | EC50 ([4]; Human Reporter Cell Line THP1): ~5.61 µM
Cc1ccc(-c2nc3cc(OCCCCl)ccc3o2)cc1[N+](=O)[O-] [ND-81] | ~9.79 µM |  |  |  | 23.19% | > 25 µM | > 25 µM | 
Cc1ccc(-c2nc3cc(OCCCN4CCCC4)ccc3o2)cc1N [ND-82] | ~9.36 µM |  |  |  | 22.57% | > 25 µM | > 25 µM | 
COc1cc2nc(-c3ccccc3)nc(N3CCN(CCN4CCCC4)CC3)c2cc1OC [ND-98] |  | 3.03 µM |  |  |  | 19.3 µM | 18.1 µM | 
Cc1ccc(C(=O)Nc2cc(-c3nc4ccccc4s3)ccc2C)c(C)c1 [ND-104] |  |  |  |  |  |  |  | EC50 ([4]; Human Reporter Cell Line THP1): 12.2 µM
